According to ChEMBL document CHEMBL1155947, “Discovery of a novel series of benzoic acid derivatives as potent and selective human beta3 adrenergic receptor agonists with good oral bioavailability. 3. Phenylethanolaminotetraline (PEAT) skeleton containing biphenyl or biphenyl ether moiety” (J Med Chem, 2008):
pEC50: −log10 of the molar value. Each block holds one compound with its values, some of them ahead of it.

Key:
[1] = Cmax in dog at 0.2 mg/kg, po by cassette assay; type: ADME, organism-based, Canis lupus familiaris; parameters: dose 0.2 mg/kg, route oral; settings: in vivo
[2] = AUC (0 to 24 hrs) in rat at 1.0 mg/kg, po; type: ADME, organism-based; parameters: time < 24 hr, dose 1 mg/kg, route oral; settings: plasma
[3] = Terminal half life in rat at 0.32 mg/kg, iv; type: ADME, organism-based; parameters: dose 0.32 mg/kg, route intravenous; settings: in vivo
Homo sapiens = species: Homo sapiens; test: Ratio of EC50 for human cloned beta-1 adrenergic receptor to EC50 for human cloned beta3 adrenergic receptor
[4] = AUC (0 to 24 hrs) in dog at 0.2 mg/kg, po by cassette assay; type: ADME, organism-based, Canis lupus familiaris; parameters: time < 24 hr, dose 0.2 mg/kg, route oral; settings: plasma
[5] = Total clearance in rat at 0.32 mg/kg, iv; type: ADME, organism-based; parameters: dose 0.32 mg/kg, route intravenous; settings: in vivo
[6] = Terminal half life in dog at 0.12 mg/kg, iv by cassette assay; type: ADME, organism-based, Canis lupus familiaris; parameters: dose 0.12 mg/kg, route intravenous; settings: in vivo
[7] = biological target: Beta-2 adrenergic receptor (Homo sapiens, UniProt P07550); test: Agonist activity at human beta2 adrenergic receptor expressed in CHO cells assessed as cAMP accumulation; type: functional, cell-based
Sequence of Beta-2 adrenergic receptor (P07550 whole entry): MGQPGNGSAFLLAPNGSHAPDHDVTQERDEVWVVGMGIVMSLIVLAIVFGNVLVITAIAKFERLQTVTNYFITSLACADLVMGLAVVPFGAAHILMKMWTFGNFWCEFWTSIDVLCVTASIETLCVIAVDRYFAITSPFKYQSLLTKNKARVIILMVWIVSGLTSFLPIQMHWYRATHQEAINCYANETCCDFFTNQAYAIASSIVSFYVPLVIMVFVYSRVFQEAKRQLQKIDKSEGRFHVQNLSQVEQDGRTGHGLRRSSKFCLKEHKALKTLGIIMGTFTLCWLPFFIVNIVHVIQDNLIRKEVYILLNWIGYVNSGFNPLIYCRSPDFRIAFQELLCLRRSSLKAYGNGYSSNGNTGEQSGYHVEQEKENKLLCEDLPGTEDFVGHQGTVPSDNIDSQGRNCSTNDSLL

[8] = Oral bioavailability in dog at 0.12 mg/kg by cassette assay; type: ADME, organism-based, Canis lupus familiaris; settings: in vivo
[9] = Oral bioavailability in rat at 0.32 mg/kg; type: ADME, organism-based; settings: in vivo
[10] = Total clearance in dog at 0.12 mg/kg, iv by cassette assay; type: ADME, organism-based, Canis lupus familiaris; parameters: dose 0.12 mg/kg, route intravenous; settings: in vivo
[11] = biological target: Beta-3 adrenergic receptor (Homo sapiens, UniProt P13945); test: Agonist activity at human cloned beta3 adrenergic receptor expressed in CHO cells assessed as cAMP accumulation; type: functional, cell-based
Sequence of Beta-3 adrenergic receptor (P13945 whole entry): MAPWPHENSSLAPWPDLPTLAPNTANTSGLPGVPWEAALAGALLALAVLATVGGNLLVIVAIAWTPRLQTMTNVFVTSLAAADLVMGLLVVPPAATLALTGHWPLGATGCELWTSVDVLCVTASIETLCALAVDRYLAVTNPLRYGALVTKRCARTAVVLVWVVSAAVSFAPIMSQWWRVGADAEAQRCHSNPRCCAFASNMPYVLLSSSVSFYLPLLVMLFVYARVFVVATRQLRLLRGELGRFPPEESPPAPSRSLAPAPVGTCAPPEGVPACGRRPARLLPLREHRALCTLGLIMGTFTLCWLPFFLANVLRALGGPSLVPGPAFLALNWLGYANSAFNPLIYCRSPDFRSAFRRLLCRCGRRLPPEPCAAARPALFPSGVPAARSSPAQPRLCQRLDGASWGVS

[12] = Cmax in rat at 1.0 mg/kg, po; type: ADME, organism-based; parameters: dose 1 mg/kg, route oral; settings: in vivo
[13] = biological target: Beta-1 adrenergic receptor (Homo sapiens, UniProt P08588)
Sequence of Beta-1 adrenergic receptor (P08588 whole entry): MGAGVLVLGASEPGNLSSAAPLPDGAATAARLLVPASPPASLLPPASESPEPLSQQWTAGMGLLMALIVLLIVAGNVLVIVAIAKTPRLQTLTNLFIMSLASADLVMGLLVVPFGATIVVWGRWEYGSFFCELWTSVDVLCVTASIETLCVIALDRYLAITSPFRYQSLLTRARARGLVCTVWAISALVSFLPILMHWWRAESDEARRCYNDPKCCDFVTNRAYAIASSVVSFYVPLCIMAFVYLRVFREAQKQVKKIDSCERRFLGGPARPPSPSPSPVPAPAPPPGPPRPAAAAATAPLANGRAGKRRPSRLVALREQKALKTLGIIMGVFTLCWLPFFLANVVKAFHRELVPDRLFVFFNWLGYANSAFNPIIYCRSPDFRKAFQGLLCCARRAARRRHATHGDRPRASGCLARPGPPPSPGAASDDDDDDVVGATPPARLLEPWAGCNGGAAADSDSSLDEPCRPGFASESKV
Description: Agonist activity at human cloned beta-1 adrenergic receptor expressed in CHO cells assessed as cAMP accumulation

Canis familiaris [14] = test: Ratio of AUC for drug to AUC for 3-[((7S)-7-{[(2R)-2-(3-Chlorophenyl)-2-hydroxyethyl]amino}-5,6,7,8-tetrahydro-2-naphthalenyl)oxy]benzoic acid hydrochloride in dog at 0.1 or 0.20 mg/kg, po by cassette dosing assay; type: ADME, organism-based, Canis lupus familiaris; parameters: dose 0.2 mg/kg, route oral; settings: in vivo, 0.2 mg/kg
[15] = AUC (0 to 24 hrs) in dog at 0.32 mg/kg, po by cassette assay; type: ADME, organism-based, Canis lupus familiaris; parameters: time < 24 hr, dose 0.32 mg/kg, route oral; settings: plasma
[16] = Cmax in dog at 0.32 mg/kg, po by cassette assay; type: ADME, organism-based, Canis lupus familiaris; parameters: dose 0.32 mg/kg, route oral; settings: in vivo
Canis familiaris [17] = test: Ratio of Cmax for drug to Cmax for 3-[((7S)-7-{[(2R)-2-(3-Chlorophenyl)-2-hydroxyethyl]amino}-5,6,7,8-tetrahydro-2-naphthalenyl)oxy]benzoic acid hydrochloride in dog at 0.1 or 0.20 mg/kg, po by cassette dosing assay; type: ADME, organism-based, Canis lupus familiaris; parameters: dose 0.2 mg/kg, route oral; settings: in vivo, 0.2 mg/kg
[18] = Total clearance in dog at 0.1 mg/mL, iv by cassette assay; type: ADME, organism-based, Canis lupus familiaris; settings: in vivo
[19] = Terminal half life in dog at 0.1 mg/mL, iv by cassette assay; type: ADME, organism-based, Canis lupus familiaris; settings: in vivo
[20] = Bioavailability in dog at 0.1 mg/mL, iv by cassette assay; type: ADME, organism-based, Canis lupus familiaris; settings: in vivo
[21] = Oral bioavailability in monkey at 0.83 mg/kg; type: ADME, organism-based, Macaca mulatta; settings: rhesus monkey, in vivo
[22] = Oral bioavailability in rat at 0.83 mg/kg; type: ADME, organism-based; settings: in vivo
[23] = Protein binding in Beagle dog serum at 32 ug/kg, iv; type: ADME, organism-based, Canis lupus familiaris; settings: 0.032 mg/kg, read-out: PB (converted)
Canis familiaris [24] = test: Inhibition of carbachol-induced increase of intravesical pressure in Beagle dog OAB model at 32 ug/kg,; type: functional; settings: Canis lupus familiaris
[25] = Oral bioavailability in dog at 0.83 mg/kg; type: ADME, organism-based, Canis lupus familiaris; settings: in vivo

Cmax [1]: 92.5 ng/mL
AUC(0-t) at 24 h [2]: 177 ng·h/mL
half-life [3]: 70.8 min
Ratio EC50 (Homo sapiens): 38
AUC(0-t) at 24 h [4]: 902 ng·h/mL
clearance [5]: 52.6 mL/min/kg
half-life [6]: 228 min
pEC50 [7]: < 5.00
bioavailability [8]: 83.2%
bioavailability [9]: 60%
clearance [10]: 3 mL/min/kg
pEC50 [11]: 7.41
Cmax [12]: 28.1 ng/mL
pEC50 [13]: 5.82
SMILES: O=C(O)COc1ccc2c(c1)C[C@@H](NC[C@H](O)c1cccc(Cl)c1)CC2

Ratio AUC (Canis familiaris [14]): 1
AUC(0-t) at 24 h [15]: 2000 ng·h/mL
Ratio EC50 (Homo sapiens): > 138
Cmax [16]: 151 ng/mL
pEC50 [7]: < 6.00
Ratio (Canis familiaris [17]): 1
clearance [18]: 2.4 mL/min/kg
half-life [19]: 474 min
bioavailability [20]: 81%
pEC50 [11]: 8.15
pEC50 [13]: < 6.00
SMILES: O=C(O)c1cccc(Oc2ccc3c(c2)C[C@@H](NC[C@H](O)c2cccc(Cl)c2)CC3)c1

bioavailability [21]: 35%
bioavailability [22]: 29%
fraction unbound [23]: 0.06
bioavailability [25]: 73%
SMILES: CCOC(=O)COc1ccc2c(c1)C[C@@H](NC[C@H](O)c1cccc(Cl)c1)CCC2
inhibition in vivo at 0.032 mg/kg (Canis familiaris [24]): 40.8%
